Article PMC12169104, “Towards the development of supramolecular self-associating amphiphiles as antibiofilm agents against Pseudomonas aeruginosa and Candida albicans biofilms” (Journal of Materials Chemistry. B, 2025)

Key:
[1] = test system: P. aeruginosa (PAO1) biofilms; experiment: Biofilm inhibition, XTT metabolic assay; format: cell-based, Pseudomonas aeruginosa; conditions: 2.56 mM, Fig. 7(a)
Experimental: Initially, the ability of SSAs 1–5 to inhibit biofilm formation was determined against P. aeruginosa (PAO1) biofilms through an XTT metabolic assay, used to determine the viability of cells within a biofilm (Section S4, ESI ^†).[57] […] We believe that this may indicate that SSAs which contain a squaramide residue may experience an additional barrier to eliciting an antimicrobial effect that is concentration dependent.
Section S4: Microbial materials and methods
General remarks: The reference strains, Pseudomonas aeruginosa PAO1 and Candida albicans SC5314,
were used in this study. The strains were stored at −80 °C in nutrient broth (NB) (1 gL–1 meat extract, 2
gL–1 yeast extract, 5 gL–1 peptone, and 8 gL–1 sodium chloride) supplemented with 25 and 15 % (v/v)
glycerol, respectively. Before each assay, the P. aeruginosa and C. albicans strains were cultured from
the frozen stock onto nutrient agar (NA) (1 gL –1 […], 2 gL–1 yeast extract, 5 gL–1 peptone, 8 gL–
1 sodium chloride, 20 gL–1 agar) and yeast malt extract (YM) agar (3 gL–1 malt extract, 3 gL–1 yeast […]
for 48 hours at 37 °C and OD measurement (at a wavelength of 595 nm, OD 595) (EZ Read 800 Research, […]
introduced to each well. The plates were incubated for 3 hours at 37 °C in the dark and the absorbance
measured at 492 nm using a microtiter plate reader (EZ Read 800 Research, Biochrom, England). […]
evaluated. […]

[2] = Metabolic stability in liver microsomes; format: in vitro ADME, rat
Experimental: Section S5: In vitro and in vivo studies
These studies were performed by Contract Research Organisation (CRO) Pharmaron. The methodology provided within the ESI is published within the express permission of this organisation.
The percentage of a compound recovered during the analysis process should be 100 %; any deviation from this value indicates experimental limitations such as unintended potential non-specific binding events to experimental equipment, solubility issues, etc.
In vitro Absorption, Distribution and Metabolism studies methods: […]
The ionisation
Kinetic Solubility Determination in PBS pH 7.4:
The stock solutions of test and control compounds were prepared in DMSO at 10 mM. From this a 300 µM solution was prepared in duplicate in 100 mM Phosphate Buffered Saline (PBS, pH 7.4 ± 0.1). These solutions were then shaken at 1100rpm for 2 hours at 25°C. […]
Metabolic Stability in Rat, Mouse and Human Liver Microsomes :
The metabolic stability of compounds at a concentration of 1 µM, in rat, mouse and human liver microsomes (BD Gentest, Franklin Lakes NJ) was measured following incubation with hepatic microsomes (0.5 mg of protein / mL) in the presence and absence of cofa ctor (NADPH) at 37 °C.
Aliquots of each incubation were removed at 0.5, 5, 15, 30 and 60 minutes. The reaction was stopped by the addition of cold acetonitrile containing analytical internal standard (IS). […]

SMILES | Inhibition of biofilm formation [1] | half-life at 1 µM ([2]; liver microsomes, rat microsomes, 1 µM, read-out: In vitro T1/2) [h] | Hepatic Extraction Ratio (ER) ([2]; rat)
O=c1c(NCCCS(=O)(=O)O)c(Nc2ccc(C(F)(F)F)cc2)c1=O [SSA 4] | completely inhibit biofilm formation | – | –
O=C(O)CNc1c(Nc2ccc(C(F)(F)F)cc2)c(=O)c1=O [SSA 5] | completely inhibit biofilm formation | > 3.08 | < 0.21
